Measured values from patent US20030190368A1, “METHODS OF DIAGNOSIS AND TRIAGE USING CELL ACTIVATION MEASURES” (priority 1998, published 2003).
Entries after “also recorded” stand apart in the source; their conditions may differ.

Key:
[1] = system: isolated naive human neutrophils; assay: Pseudopod formation test: protease inhibitors against pancreatic homogenate-induced neutrophil activation; format: cell-based
Procedure: For the pseudopod assay, venous blood is collected in heparinized tubes from healthy human volunteers and put on ice. It is important that heparin and not EDTA ([…]) be used as an anticoagulant, as the calcium-chelating properties of EDTA can affect neutrophil activation. […] Other chemicals for the Krebs-Henseleit buffer are from Fisher Scientific, Fair Lawn, N.J. The resuspended cells are then gently layered onto 2.5 ml of a 55% isotonic Percoll (Sigmal Chemical Company) solution and 2.5 ml of a 74% isotonic Percoll solution in deionized water. The suspension is centrifuged for 15 minutes at 600 G and the middle granulocyte layer is removed and resuspended in PBS to achieve a concentration of 10^6 neutrophils/ml. 100 μl aliquots of suspended neutrophils are added to 100 μl of test plasma or activating agent. This mixture is mixed and then incubated for 10 minutes at 27° C. After incubation 100 μl of 3% glutaraldehyde (Fisher Scientific) is added to stop the reaction. 100 μl of crystal violet in phosphate (pH: 7.4) buffer is then added to stain leukocyte nuclei on wet mount preparations. Freely suspended neutrophils with pseudopodia are identified by their segmented nuclei and the presence of cytoplasmic granules. One hundred neutrophils are counted. Cells with pseudopod projection greater than about 1 um are considered positive.
Rat homogenate was collected as described in detail in Example 5. Briefly, male Wistar rats (250-350 gm) were housed in a controlled environment and maintained on a standard pellet diet for at least three days before initiation of experimental procedures. Animals were cannulated via the femoral arteries and vein under general anesthesia using pentobarbital (50 mg/kg i.m.). The rats were exsanguinated and the heart, liver, spleen, small intestine, and pancreas removed. The organs were immediately washed and cleaned in cold 0.25 M sucrose solution. Then, the cleaned organs were vigorously homogenized in Krebs-Henseleit solution ([…]). Aliquots were filtered by centrifugation at 500 G for 10 min. Pancreatic homogenates were incubated for 2.5 hours at 38° C., stirred frequently. Incubated pancreatic homogenate as well as controls were tested against naive human donor neutrophils for pseudopod formation as described in Example 2.
To determine whether or not neutrophil activation by pancreatic homogenate is protease dependent, the pseudopod formation test was repeated by preincubation of isolated neutrophils with various protease inhibitors (50 μl) for 10 minutes followed by addition of pancreas homogenate (50 μl) and further incubation for 10 minutes. […] All protease inhibitors were the gift of Dr. Tony E. Hugli of The Scripps Clinic and Research Institute, with the exception of Complete™, an all-purpose protease inhibitor purchased from Boehringer Mannheim, Indianapolis, Ind. One of the components of Complete™ is EDTA (ethylenediaminetetra-acetic acid), a standard anti-coagulant and divalent cation chelator.
To determine whether the protease inhibitors were acting on the pancreatic homogenate or the neutrophils themselves, a new set of neutrophil pseudopod experiments was carried out. […] Appropriate controls were recorded as well as a positive control (10^−7 M fMLP) to determine the washed cells' ability to respond to stimuli. Formyl-methionyl-leucyl-phenylalanine (fMLP) was obtained from Sigma Chemical Company, St. Louis, Mo.

[2] = system: rats subjected to SAO shock; assay: Splanchnic arterial occlusion (SAO) shock with Futhan pretreatment; format: in vivo, rat
Source text: Rats randomly selected were weighed and anesthetized, and arterial and venous catheters were inserted which were used for blood pressure measurements and anesthesia, respectively. […] At the termination of the experiments arterial blood was drawn for determination of plasma peroxide concentration using a peroxide electrode measurement technique.
Male Wistar rats (250-320 g) were randomly divided into SAO shock (n=7) and SAO shock sham groups (n=6). Animals were cannulated via the femoral arteries and vein under general anesthesia using pentobarbital (50 mg/kg i.m.). No heparin was injected other than that needed to ensure open catheter lines (10U/ml Plasma-Lyte). One femoral artery was connected up to monitor continuous mean arterial pressure (MAP), while the other was used for the collection of blood samples. […] MAP and heart rate were recorded.

neutrophils = settings: cited from earlier work
[3] = pH and solubility of Futhan; format: physicochemical
Procedure: The reasons for the ineffectiveness of Futhan in ameliorating SAO shock in initial experiments appeared to be due to the pH of Futhan in solution, which is approximately 3.5 at the concentration of I mg/ml in 5% glucose-deionized (DI) water as per the manufacturer's instructions. Under the established protocol, approximately 2 ml of this solution were injected at the rate of 0.05 ml every 5 minutes into an approximate rat blood volume of 20 ml. In sham-shocked animals (not reported here) the buffering capacity of blood is able to absorb any perturbations in pH. In shocked animals, however, the pH buffering capacity, especially of the pancreas and small intestine, is severely compromised. Thus, the injection of Futhan would contribute to irreversible acidosis. […] Although the animals recovered from these transient depressions of MAP, Futhan injected animals typically expressed a lower MAP than the saline-injected group. This difference was not significant.

CS(=O)(=O)O.CS(=O)(=O)O.N=C(N)Nc1ccc(C(=O)Oc2ccc3cc(C(=N)N)ccc3c2)cc1 [Futhan, 6-amidino-2-naphthyl p-guanidinobenzoate dimethanesulfonate]
percent neutrophil activation, Wash group ([1]; neutrophils incubated 10 min with Futhan 0.1 mg/ml, washed two times, then pancreatic homogenate 10 min): 53.5±31%
percent neutrophil pseudopod formation (activation) by rat pancreatic homogenate in presence of protease inhibitor ([1]; neutrophils preincubated 10 min with inhibitor (PMSF 1 mM; Complete 1 tablet/20 ml; Benzamidine 1150 μM; Futhan 0.1 mg/ml; aprotinin 20 μM), then homogenate 10 min, homogenate alone 85.1±11.5%): 30.3±11.8%
inhibition of pancreatic homogenate-induced neutrophil activation (in words) ([1]; pseudopod formation, rat pancreatic homogenate, dimethanesulfonate): abolished pancreatic homogenate-induced activation; also recorded: dose-dependent inhibition
percent neutrophil activation, Inhibitor group ([1]; washed neutrophils incubated with combined Futhan 0.1 mg/ml and pancreatic homogenate): 51.5±34%
MAP and survival time, small bolus regimen ([2]; 0.05 ml bolus every 5 minutes, 1, 3.3, 10, 20 mg Futhan/kg body wt, pretreatment 30 or 60 min): uniformly unable to restore MAP or increase survival times
blood pressure effect of Futhan injection ([2]; 0.05 ml doses): transient hypotension
mean arterial pressure after removal of arterial clamps ([2]; Futhan 3.3 mg/kg body wt/hour i.v. infusion pump, 60 min pretreatment, vs saline): significant reduction in the fall of blood pressure
survival / mortality after SAO shock ([2]; Futhan 3.3 mg/kg body wt/hour infusion, 60 min pretreatment, vs saline controls, dimethanesulfonate): significant increase in survival; also recorded: prevented mortality
circulating plasma peroxide after SAO shock ([2]; Futhan 3.3 mg/kg body wt/hour infusion, vs control animals): significantly lower levels of circulating peroxide production
plasma peroxide formation after SAO shock, small bolus regimen ([2]; initial experiments, bolus injections): ineffective
free radical scavenging (neutrophils): does not possess any free radical scavenging effects
zymosan-induced chemiluminescence activation by neutrophils (neutrophils; in vitro): inhibited zymosan-induced chemiluminescence activation by neutrophils
pH of Futhan in solution ([3]; I mg/ml in 5% glucose-deionized (DI) water): approximately 3.5
solubility ([3]; alcohol, rat serum, DMSO, balanced Tris (Trizma) buffer at physiologic pH): insoluble
